Results reported in PMC11962044, “Experimental and theoretical studies on structural changes in the microtubule affinity-regulating kinase 4 (MARK4) protein induced by N-hetarenes: a new class of therapeutic candidates for Alzheimer’s disease” (Frontiers in Medicine, 2025).
Read-outs that look alike come from different tables or passages of the source.

Legend:
MARK4 enzyme = settings: cited from earlier work
MARK4 [1] = biological target: T1, MARK4 (Homo sapiens, UniProt Q96L34); test: ATPase inhibition assay (Malachite green) with purified MARK4; format: biochemical; settings: MARK4 5 μM, ATP 200 μM, ligand 0–10 μM, 1 h at 25°C, read-out: IC50 against MARK4
T1 sequence (Q96L34 1-752): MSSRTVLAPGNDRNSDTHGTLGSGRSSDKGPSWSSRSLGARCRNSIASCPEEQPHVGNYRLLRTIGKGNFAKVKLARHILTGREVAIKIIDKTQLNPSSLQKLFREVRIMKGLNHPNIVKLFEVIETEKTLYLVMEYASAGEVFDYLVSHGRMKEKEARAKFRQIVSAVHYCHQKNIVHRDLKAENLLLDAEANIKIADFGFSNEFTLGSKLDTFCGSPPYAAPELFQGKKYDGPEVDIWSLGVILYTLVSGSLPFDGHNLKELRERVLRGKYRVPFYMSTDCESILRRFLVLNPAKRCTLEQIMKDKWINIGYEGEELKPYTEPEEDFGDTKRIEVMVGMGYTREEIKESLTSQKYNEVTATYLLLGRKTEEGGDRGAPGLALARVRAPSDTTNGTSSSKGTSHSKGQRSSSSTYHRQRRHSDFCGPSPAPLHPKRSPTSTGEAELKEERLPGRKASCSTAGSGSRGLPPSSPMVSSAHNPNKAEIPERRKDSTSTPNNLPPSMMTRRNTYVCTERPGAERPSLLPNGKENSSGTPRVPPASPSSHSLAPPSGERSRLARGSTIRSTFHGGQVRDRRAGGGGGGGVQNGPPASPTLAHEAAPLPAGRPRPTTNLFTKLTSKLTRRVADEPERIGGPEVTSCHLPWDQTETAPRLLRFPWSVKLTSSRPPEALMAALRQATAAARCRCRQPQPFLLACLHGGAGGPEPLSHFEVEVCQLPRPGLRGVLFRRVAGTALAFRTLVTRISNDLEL
Method: Purified MARK4 was used to conduct ATPase inhibition experiment following the reported method ([18], [30]). The concentration of the purified protein used was 5 μM, the ligand concentration was 0–10 μM and the substrate (ATP) was 200 μM. The ligand concentration was increased gradually against a given concentration of MARK4. The experiment involved combining MARK4 with freshly prepared ATP, resulting in a final reaction mixture volume of 100 μL. This mixture was incubated for 1 h at 25°C. This is followed by the addition of Malachite green solution (200 μL) to quench the reaction. The samples were allowed to incubate at room temperature for color development. Finally, the reaction mixture (100 μL) was filled into 96-well plates and analyzed using a multiscan ELISA reader (λ = 620 nm). All experimental reactions were conducted in triplicate to ensure statistical reliability.

MARK4 [2] = biological target: T1, MARK4; test: Fluorescence quenching binding assay; settings: modified Stern-Volmer equation; excitation 280 nm; read-out: binding constant (K) (converted)
Method: A fluorescence-based binding assay was conducted to evaluate the binding efficiency of ligands. During the titration, the concentration of the pure MARK4 protein was kept constant while increasing concentrations of the ligand ([31]). The emission data were collected using a Jasco FP-6200 spectrofluorimeter (Japan), with a slit width of 10 nm and medium sensitivity. The samples were excited at 280 nm, and the emission spectra were recorded. Blank subtracted spectra are reported, and each measurement was performed in triplicate. For fluorescence values, we took the inner filter effect into account ([32]). The binding constant (K) was calculated using the Stern-Volmer (SV) (Equations 1, 2). (1) F0/F=1+KsvC (2) logF0−F/F=logK+nlogC Where F0 denotes the fluorescence intensity of the protein in the absence of ligands, whereas F indicates the fluorescence intensity when ligands are present. K represents the binding constant, n indicates the number of binding sites, and C refers to the concentration of the ligand.

[3] = read-out: IC50 MARK4 enzyme in vitro

Q: Which IC50 (MARK4 enzyme; [3]) does the source give for `COc1cc2c(cc1OC)C(=O)C(CC1CCN(Cc3ccccc3)CC1)C2` (centres unmarked) [donepezil] here?
A: Its IC50 is 5.3 µM.

Q: Which IC50 (MARK4 enzyme; reference inhibitor of MARK4, read-out: IC50 of the reference inhibitor) does the source give for `O=C(/C=C/c1ccc(O)c(O)c1)O[C@H](Cc1ccc(O)c(O)c1)C(=O)O` [Rosmarinic acid] here?
A: Its IC50 is about 6.2 µM.

Q: Which results are given for `Cc1ccc(-c2cc(N3CCN(C(=N)N)CC3)ncn2)cc1` [Compound 5, 4-(6-(p-Tolyl)pyrimidin-4-yl)piperazine-1-carboximidamide]?
A: IC50 (MARK4 [1]): 5.35 ± 0.22 µM; Kd (MARK4 [2]): 6.67 µM

Q: Which IC50 (MARK4 [1]) does the source give for `N=C(N)N1CCN(c2cc(-c3ccc(C(F)(F)F)cc3)ncn2)CC1` [Compound 8, 4-(6-(4-(Trifluoromethyl)phenyl)pyrimidin-4-yl)piperazine-1-carboximidamide] here?
A: The IC50 was 15.8 ± 0.92 µM.

Q: For `N=C(N)N1CCN(c2cc(-c3ccc(OC(F)(F)F)cc3)ncn2)CC1` [Compound 10, 4-(6-(4-(Trifluoromethoxy)phenyl)pyrimidin-4-yl)piperazine-1-carboximidamide], which IC50 (MARK4 [1]) is on record?
A: The IC50 was 7.28 ± 0.49 µM.

Q: With `CCN(C)C(=O)Oc1cccc([C@H](C)N(C)C)c1` [rivastigmine] as the compound, how does the IC50 (MARK4 enzyme; [3]) read?
A: Its IC50 is 6.74 µM.

Q: What does the source list for `N=C(N)N1CCN(c2cc(-c3cc4ccccc4s3)ncn2)CC1` [Compound 9, 4-(6-(benzo[b]thiophen-2-yl)pyrimidin-4-yl)piperazine-1-carboximidamide]?
A: IC50 (MARK4 [1]): 6.68 ± 0.8 µM; Kd (MARK4 [2]): 8.77 µM

Q: With `N=C(N)N1CCN(c2cc(-c3ccc(Cl)c(Cl)c3)ncn2)CC1` [Compound 6, 4-(6-(3,4-Dichlorophenyl)pyrimidin-4-yl)piperazine-1-carboximidamide] as the compound, how does the IC50 (MARK4 [1]) read?
A: Its IC50 is 11.8 ± 1.19 µM.

Q: For `N=C(N)N1CCN(c2cc(-c3ccc(F)c(Cl)c3)ncn2)CC1` [Compound 7, 4-(6-(3-Chloro-4-fluorophenyl)pyrimidin-4-yl)piperazine-1-carboximidamide], which IC50 (MARK4 [1]) is on record?
A: The IC50 was 16.5 ± 1.71 µM.
